# Data from patent EP1290011B1 (Oncopeptides AB, priority 2000, dated 2001).
# Counter-ions that a name gives are not always drawn. Like-named read-outs stand apart in the source and are kept apart here.
# How the values were obtained:
# Experiment in all cases: cells
# CEM/R = assay type: cell-based, human
# [1] = system: panel of ten human tumour cell lines; assay type: cell-based; details: read-out: MEAN IC50
# U937vcr = assay type: cell-based, human
# ACHN = assay type: cell-based, human; details: ACHN
# H69 = assay type: cell-based, human
# CEM/S = assay type: cell-based, human
# 8226S = assay type: cell-based, human
# 8226Dox40 = assay type: cell-based, human
# 8226LR5 = assay type: cell-based, human
# H69AR = assay type: cell-based, human; details: H69AR
# U937gtb = assay type: cell-based, human
# U-1752 = assay type: cell-based
# U1906L = assay type: cell-based
# U-1568 = assay type: cell-based
# U1285 = assay type: cell-based
# U1690 = assay type: cell-based
# NCI-H611 = assay type: cell-based
# [2] = system: hematological fresh human tumour specimens (PHTC); details: 72 h, read-out: Tumour cell survival index % Hematological
# NCI-H157 = assay type: cell-based; details: Homo sapiens, NCI-H157
# U-1810 = assay type: cell-based; details: U-1810
# U-1906E = assay type: cell-based
# NCI-H23 = assay type: cell-based; details: Homo sapiens, NCI-H23
# NCI-H125 = assay type: cell-based; details: Homo sapiens, NCI-H125
# [3] = system: solid tumour fresh human tumour specimens (PHTC); details: 72 h, read-out: Tumour cell survival index % Solid
# [4] = CEM/R, 72 hours incubation, read-out: IC50
# [5] = U937vcr, vincristine resistance, 72 hours incubation, read-out: IC50
# [6] = primary resistant renal carcinoma, 72 hours incubation, read-out: IC50
# [7] = H69, small cell lung cancer, 72 hours incubation, read-out: IC50
# [8] = CEM/S, 72 hours incubation, read-out: IC50
# [9] = 8226S, myeloma, 72 hours incubation, read-out: IC50
# [10] = 8226Dox40, doxorubicin resistance, 72 hours incubation, read-out: IC50
# [11] = 8226LR5, melphalan resistance, 72 hours incubation, read-out: IC50
# [12] = doxorubicin resistance, 72 hours incubation, read-out: IC50
# [13] = U937gtb, lymphoma, 72 hours incubation, read-out: IC50
smiles,measurement,setting,value
"O=c1[nH]cc(F)c(=O)[nH]1 [Example 5-FU, 5-FU, reference compound]",IC50,CEM/R; [4],44500 nM
same,IC50,[1]; mean over the ten cell lines,321000 nM
same,IC50,U937vcr; [5],572000 nM
same,IC50,ACHN; [6],769000 nM
same,IC50,H69; [7],769000 nM
same,IC50,CEM/S; [8],57400 nM
same,IC50,8226S; [9],75600 nM
same,IC50,8226Dox40; [10],60600 nM
same,IC50,8226LR5; [11],5300 nM
same,IC50,H69AR; [12],769000 nM
"CCOC(=O)[C@H](Cc1ccc(N(CCCl)CCCl)cc1)NC(=O)[C@@H](N)Cc1ccc(N(CCCl)CCCl)cc1 [JV27, L-Melphalanyl-L-melphalan ethyl ester hydrochloride]",IC50,CEM/R; [4],100 nM
same,IC50,[1]; mean over the ten cell lines,760 nM
same,IC50,U937gtb; [13],160 nM
same,IC50,U937vcr; [5],260 nM
same,IC50,ACHN; [6],210 nM
same,IC50,H69; [7],290 nM
same,IC50,CEM/S; [8],140 nM
same,IC50,8226Dox40; [10],1580 nM
same,IC50,8226LR5; [11],2460 nM
same,IC50,H69AR; [12],1400 nM
"COc1cccc2c1C(=O)c1c(O)c3c(c(O)c1C2=O)C[C@@](O)(C(=O)CO)C[C@@H]3O[C@H]1C[C@H](N)[C@H](O)[C@H](C)O1 [Doxorubicin, doxorubicin]",IC50,"CEM/R; Homo sapiens, 72 h",1310 nM
same,IC50,U-1752,420 nM
same,IC50,U1906L,920 nM
same,IC50,[1]; Homo sapiens,3510 nM
same,IC50,"U937gtb; Homo sapiens, U-937/GTB, 72 h",110 nM
same,IC50,U-1568,183000 nM
same,IC50,"U937vcr; Homo sapiens, 72 h",420 nM
same,IC50,U1285,520 nM
same,IC50,"ACHN; Homo sapiens, 72 h",14200 nM
same,IC50,"H69; Homo sapiens, NCI-H69, 72 h",1660 nM
same,IC50,U1690,2210 nM
same,IC50,"CEM/S; Homo sapiens, 72 h",180 nM
same,IC50,NCI-H611,183000 nM
same,IC50,"8226S; Homo sapiens, 72 h",130 nM
same,viability at 0.92 µM,[2],29%
same,IC50,NCI-H157,200 nM
same,IC50,U-1810,22800 nM
same,IC50,"8226Dox40; Homo sapiens, 72 h",4970 nM
same,IC50,U-1906E,440 nM
same,IC50,NCI-H23,140 nM
same,IC50,"8226LR5; Homo sapiens, 72 h",550 nM
same,IC50,"H69AR; Homo sapiens, 72 h",11600 nM
same,IC50,NCI-H125,500 nM
same,viability at 0.92 µM,[3],97%
"CCOC(=O)[C@H](Cc1ccc([N+](=O)[O-])cc1)NC(=O)[C@@H](N)Cc1ccc(N(CCCl)CCCl)cc1 [JV26, L-Malphalanyl-L-p-nitrophenylalanine ethyl ester hydrochloride]",IC50,CEM/R; [4],30 nM
same,IC50,[1]; mean over the ten cell lines,610 nM
same,IC50,U937gtb; [13],230 nM
same,IC50,U937vcr; [5],260 nM
same,IC50,ACHN; [6],220 nM
same,IC50,H69; [7],60 nM
same,IC50,CEM/S; [8],50 nM
same,IC50,8226S; [9],1050 nM
same,IC50,8226Dox40; [10],1730 nM
same,IC50,8226LR5; [11],1990 nM
same,IC50,H69AR; [12],510 nM
Nc1ccn([C@@H]2O[C@H](CO)[C@@H](O)[C@@H]2O)c(=O)n1 [AraC],viability at 10.3 µM,[3],102%
"CC(=O)O[C@@]12CO[C@@H]1C[C@H](O)[C@@]1(C)C(=O)[C@H](O)C3=C(C)[C@@H](OC(=O)[C@H](O)[C@@H](NC(=O)OC(C)(C)C)c4ccccc4)C[C@@](O)([C@@H](OC(=O)c4ccccc4)[C@H]21)C3(C)C [Docetaxel, docetaxel]",IC50,U-1752,460 nM
same,IC50,U1906L,100 nM
same,IC50,U-1568,5940 nM
same,IC50,U1285,100 nM
same,IC50,U1690,7700 nM
same,IC50,NCI-H611,1100 nM
same,IC50,NCI-H157,100 nM
same,IC50,U-1810,100 nM
same,IC50,U-1906E,100 nM
same,IC50,NCI-H23,1500 nM
same,IC50,NCI-H125,160 nM
same,viability at 6.2 µM,[3],67%
"CCC1=C[C@@H]2CN(C1)Cc1c([nH]c3ccccc13)[C@@](C(=O)OC)(c1cc3c(cc1OC)N(C)[C@H]1[C@@](O)(C(=O)OC)[C@H](OC(C)=O)[C@]4(CC)C=CCN5CC[C@]31[C@@H]54)C2 [Vinorelbine, vinorelbine]",viability at 3.1 µM,[2],50%
same,viability at 3.1 µM,[3],73%
